Where a name gives a salt, the structure may show the parent alone.
Key:
[1] = system: Apomorphone-Induced Case Climbing; assay: Apomorphine antagonism (Apomorphine gnawing test; apomorphine-induced cage climbing); type: in vivo, Mouse; conditions: Mus musculus, read-out: Apomor. Antag. ED50
Excerpt: (§1) The Effect on Body Temperature (Hypothermia) Test and the Antagonism of Apomorphone-Induced Case Climbing (ACC), (Apomorphine Gnawing Test) are described on page 1398 of the publication, Journal of Medicinal Chemistry, Vol. 22, No. 11, pp. 1390-1398, in an article entitled "6-Aryl-4H-s-triazolo[4,3-a][1,4]benzodiazepines....Action" by J. B. Hester, Jr., et al.
(§2) Table 3. […] A. Behavioral effects in the rat. B. Behavioral effects in the monkey. C. Doses required to antagonize the indicated behavioral effects of amphetamine. D. Doses required to antagonize the indicated behavioral effects of apomorphine.

Dopamine (3H-spiperone) = assay: Receptor Binding Assay with 3H-spiperone (Dopamine Binding Assay), rat brain homogenate; conditions: for Dopamine Binding Assay % Decrease from Control: single concentration of 1 uM, 3H-spiperone, rat brain homogenate, 30 min
Procedure: The Receptor Binding Assay test for antipsychotic acitvity, was conducted as follows:
A rat brain homogenate was prepared (1) by homogenizing a whole rat brain minus the cerebellum in 10 ml of 0.05M THAM-HC1, pH 7.4, using a Polytron at a setting of 7 for 30 sec. and centrifuging at 15,000xg for 10 min. The supernatant was discarded, the pellet resuspended in 10 ml of buffer using the Polytron for 10 sec., and the centrifugation repeated. The pellet was resuspended and diluted to 100 times the original tissue weight with buffer. Then 100 ml of the homogenate was diluted to 400 ml with buffer.
The test drug was weighed out in a scintillation vial in a 1-5 mg ammount. They were dissolved by adding 0.5 ml of N-N-dimethylformamide of (DMF) and then 0.05 ml of 1M acetic acid, and vortexed to solubilize the drug. Then 10 ml of deionized and filtered water was added to the required volume. All compounds were tested at a single concentration of 1 uM.
Samples were prepared for incubation using an ^3H-spiperone (antipsychotic).
Incubation was conducted at 30°C for 30 min. on a shaking water bath. Every 30 sec., 24 tubes were filled with 1 ml of homogenate and put into the bath (this is done every 3 min. until all tubes are in the bath). Upon completion of the incubation procedure, the samples are filtered and rinsed.
The punched filters are dropped into vials, which are in turn filled with ACS liquid scintillation fluid and capped and counted in a liquid scintillation counter. Counting data is recorded and analyzed.
Results are expressed as percent decrease from control.

body temperature [2] = assay: Hypothermia Test (effect on body temperature); type: in vivo, CF-1 male mice; conditions: for ED50: Mus musculus, ip, 0.75 h, read-out: Hypothermia ED50; for active in either the hypothermic or the apomorphine antogonism test: either test: hypothermic or apomorphine antagonism
Procedure: as §1
For the tests here, the Hypothermia Test procedure was run as follows:
A group of four CF-1 male mice (18-22 g each) was injected intraperitoneally with the test compound prepared in 0.25 percent w/v methylcellulose in water solution. After 45 min, abdominal temperature of each mouse was measured using a thermister probe. A control group of four mice was treated with vehicle only and the temperature of the control group was taken in a similar manner. A compound was considered to have a significant effect on body temperature if the mean temperature in the test compound treated group deviated more than 3.5°C from the mean temperature of the parallel control group. Stimulants tend to elevate temperatures; depressants tend to lower body temperature.

body temperature [3] = assay: Antagonism of drug-induced hypothermia; parameters: species or system mice; conditions: mouse, in vivo
dopamine neurons [4] = assay: Depression of dopamine neuron firing rates by the drug alone; type: in vivo, rats; conditions: Rattus norvegicus, iv; for Emax: read-out: MAXIMUM EFFECT (per cent decrease)
Procedure: (§3) Table 2. Dopamine neuron firing rates were recorded according to published procedures and drugs were injected intravenously in chloral hydrate anesthetized rats. A. Ability of drugs to reverse the depression in firing rates of dopamine neurons by 1 to 2 mg/kg amphetamine. The maximum effect is the maximum amount of the amphetamine effect that was reversed, even when doses were increased beyond dose causing maximum effect. An effect greater than 100% indicates excitation of the neuron beyond its' control rate whereas an effect less than 100% indicates partial agonist effects. B. Depression of dopamine neurons by full agonist apomorphine and partial agonists TDHL, (-)PPP and U-64,273A. Maximum effect is maximum depression that could be realized even after increasing doses beyong the dose causing maximum effect. For both A and B, the ED50 is the dose causing 50% of the respective antagonistic (A) or agonist (B) effect.

dopamine neurons [5] = assay: Reversal of amphetamine depression of dopamine neuron firing rates; type: in vivo, rats; conditions: for ED50 / Emax: Rattus norvegicus, Neuron, iv; for Emax: read-out: MAXIMUM EFFECT (per cent reversal)
Procedure: as §3, with “An effect greater than 100% indicates excitation of the neuron beyond its' control rate whereas an effect less than 100% indicates partial agonist effects.” left out

Catalepsy = assay: Catalepsy; conditions: rat
Excerpt: as §2

muscarinic = assay: Muscarinic ligand binding, rat brain homogenates; conditions: 1μM, - indicates ligand was displaced
Locomotor activity = assay: Antagonism of apomorphine locomotor activity in reserpinized mouse; type: in vivo
Excerpt: as §2

alpha-2 = assay: Alpha-2 ligand binding, rat brain homogenates; conditions: 1μM, - indicates ligand was displaced
alpha-1 = assay: Alpha-1 ligand binding, rat brain homogenates; conditions: 1μM, i.a. = inactive
[6] = system: dopamine metabolites HVA, DOPAC, and 3MT; assay: Dopamine metabolites in rat brain; type: in vivo; conditions: percentage of control; 3 mg/kg of chlorpromazine, 30 mg/kg clozapine or U-64,273A; Sprague-Dawley rat
LSD = LSD ligand binding, rat brain homogenates; conditions: 1μM, - indicates ligand was displaced
plasma prolactin = assay: Plasma prolactin; type: in vivo; conditions: 3 mg/kg of chlorpromazine, 30 mg/kg clozapine or U-64,273A; Sprague-Dawley rat
6-OH DA Turning = assay: Antagonism of amphetamine: 6-OH DA turning; type: in vivo; conditions: i.a. = inactive
Excerpt: as §2

[7] = Neuron, dose causing 50% of the agonist effect, intravenously, anesthetized rats, read-out: ED50
[8] = B. depress DA neuron firing rates, intravenously, chloral hydrate anesthetized rats

Molecule: CNC1Cc2cccc3c(C)ccc(c23)C1 (stereo not drawn) [Example 39, part B, 2,3-dihydro-N,6-dimethyl-1H-phenalen-2-amine]
- ED50 [1]: 35 mg/kg
- Dopamine Binding Assay % Decrease from Control (Dopamine (3H-spiperone)): -55.37%
- ED50 (body temperature [2]): 13 mg/kg

Molecule: COC(=O)[C@@H]1[C@H]2C[C@H]3c4[nH]c5ccccc5c4CCN3C[C@@H]2CC[C@@H]1O [yohimbine]
- block of hypothermia induced by 2-(N,N-di-n-propylamino)-2,3-dihydro-lH-phenalen-5-ol (body temperature [3]): did not alter
- block of hypothermia induced by clonidine (body temperature [3]): did block

Molecule: CCN(CC)C(=O)N[C@H]1C[C@@H]2c3cccc4[nH]cc(c34)C[C@H]2N(C)C1 [TDHL, trans-dihydrolisuride]
- ED50 (dopamine neurons [4]; Neuron): 0.021 mg/kg
- Emax (dopamine neurons [4]; Neuron): 53%
- ED50 (dopamine neurons [5]): 0.132 mg/kg
- Emax (dopamine neurons [5]): 57%

Molecule: Cc1ccc2c3c(cccc13)CC(N(C)C)C2 (stereo not drawn) [Example 39, part C, 2,3-dihydro-N,N,6-trimethyl-lH-phenalen-2-amine]
- ED50 [1]: 21 mg/kg
- ED50 (body temperature [2]): 5.3 mg/kg

Molecule: Cc1ccc2c3c(cccc13)CC(N)C2 (stereo not drawn) [Example 38, part C, 6-methyl-2,3-dihydro-lH-phenalen-2-amine]
- ED50 [1]: 35 mg/kg
- Dopamine Binding Assay % Decrease from Control (Dopamine (3H-spiperone)): -30.62%
- ED50 (body temperature [2]): > 50 mg/kg

Molecule: CCCN(CCC)C1Cc2cccc3c(C)ccc(c23)C1 (stereo not drawn) [Example 38, title compound, 2,3-Dihydro-6-methyl-N,N-dipropyl-lH-phenalene-2-amine]
- ED50 [1]: > 50 mg/kg
- Dopamine Binding Assay % Decrease from Control (Dopamine (3H-spiperone)): -82.08%
- ED50 (body temperature [2]): 18 mg/kg

Molecule: O=C(CCCN1CCC(O)(c2ccc(Cl)cc2)CC1)c1ccc(F)cc1 [Haloperidol, haloperidol]
- Catalepsy, active dose (Catalepsy; in vivo): 1 mg/kg
- ED50 (dopamine neurons [5]): 0.008 mg/kg
- Emax (dopamine neurons [5]): 164%
- increase of firing rates to a level greater than controls (dopamine neurons [5]; after reversal of amphetamine depression of DA neuronal firing): 64%
- block of hypothermia induced by 2-(N,N-di-n-propylamino)-2,3-dihydro-lH-phenalen-5-ol (body temperature [3]): significantly blocks

Molecule: CCCN1CCC[C@@H](c2cccc(O)c2)C1 [(-)PPP]
- ED50 (dopamine neurons [4]; [7]): 0.137 mg/kg
- Emax (dopamine neurons [4]; [8]): 68%

Molecule: N-methyl-6-(2-methyl-l,3-dioxan-2-yl)-2,3-dihydro-lH-phena- len-2-amine maleate salt [(6)]
- active in either the hypothermic or the apomorphine antogonism test (body temperature [2]): active

Molecule: CCCN(CCC)C1Cc2cccc3c(SC)ccc(c23)C1 (stereo not drawn) [Example 40, 2,3-Dihydro-N,N-di-n-propyl-6-methylthio-lH-phenalen-2-amine]
- ED50 [1]: 12.5 mg/kg
- ED50 (body temperature [2]): 25 mg/kg

Molecule: CN(C)CCCN1c2ccccc2Sc2ccc(Cl)cc21 [CHLORPROMAZINE, chlorpromazine, reference compound]
- muscarinic, percentage of ligand displaced (muscarinic): -96.4%
- Locomotor activity, reserpinized mouse, 3 mg/kg (antag. of apomorphine) (Locomotor activity): 85% (CPZ)
- alpha-2, percentage of ligand displaced (alpha-2): -83.4%
- alpha-1, percentage of ligand displaced (alpha-1): -98.6%
- 3MT [6]: 365%
- DOPAC [6]: 375%
- HVA [6]: 225%
- LSD, percentage of ligand displaced (LSD): -76.8%
- Plasma Prolactin (plasma prolactin): 1057%
- spiperone, percentage of ligand displaced (Dopamine (3H-spiperone); 1μM, rat brain homogenates, - indicates ligand was displaced): -81.6%

Molecule: CNC1Cc2cccc3c(C(=O)c4ccccc4)ccc(c23)C1 (stereo not drawn) [(20), [2-(N-methylamino)-2,3-dihydro-lH-phenalen-6-yl]phenone methanesulfonate salt]
- active in either the hypothermic or the apomorphine antogonism test (body temperature [2]): active

Molecule: CN(C)C1Cc2cccc3cccc(c23)C1 [U-65,556, 2,3-dihydro-N,N-dimethyl-lH-phenalen-2-amine]
- reversal of amphetamine's depression of DA neuronal firing (in words) (dopamine neurons [5]; intravenous, anesthetized rats): reversed amphetamine's depressions of DA neurons without causing firing rates to increase over control

Molecule: CCCN(CCC)C1Cc2cccc3cc(O)cc(c23)C1.Cl (racemic) [(16), (±)2-(N,N-di-n-propylamino)-2,3-dihydro-1H-phenalen-5-ol hydrochloride]
- active in either the hypothermic or the apomorphine antogonism test (body temperature [2]): active

Molecule: CCCN(CCC)C1Cc2cccc3cc(OC(=O)C(C)(C)C)cc(c23)C1 (stereo not drawn) [(44), 2-(N,N-di-n-propylamino)-2,3-dihydro-lH-phenalen-5-ol, 2,2-dimethylpropyl ester hydrochloride]
- active in either the hypothermic or the apomorphine antogonism test (body temperature [2]): active

Molecule: CCCN(CCC)C1Cc2cccc3c(Br)ccc(c23)C1 (stereo not drawn) [(4)]
- active in either the hypothermic or the apomorphine antogonism test (body temperature [2]): active

Molecule: COc1ccc2cccc3c2c1CC(N(C)C)C3 (stereo not drawn) [(31), N,N-dimethyl-4-methoxy-2,3-dihydro-lH-phenalen-2-ylamine maleate salt]
- active in either the hypothermic or the apomorphine antogonism test (body temperature [2]): active

Molecule: CNC1Cc2cccc3c(OCc4ccccc4)ccc(c23)C1 (stereo not drawn) [(21), [2-(N-methylamino)-2,3-dihydro-lH-phenalen-6-yl]benzyl ether, p-toluene sulfonate salt]
- active in either the hypothermic or the apomorphine antogonism test (body temperature [2]): active

Molecule: CN1CCN(C2=Nc3cc(Cl)ccc3Nc3ccccc32)CC1 [Clozapine, clozapine]
- Catalepsy, active dose (Catalepsy; i.a. = inactive): i.a.
- Locomotor activity, reserpinized mouse, 3 mg/kg (antag. of apomorphine) (Locomotor activity): 52%
- Emax (dopamine neurons [5]; A. antagonize amphetamine depressions, intravenously, chloral hydrate anesthetized rats, 1 to 2 mg/kg amphetamine, >100% = excitation beyond control rate): 105%
- ED50 (dopamine neurons [5]; dose causing 50% of the antagonistic effect, intravenously, anesthetized rats, read-out: ED50): 2 mg/kg
- 3MT [6]: 104%
- DOPAC [6]: 110%
- HVA [6]: 118%
- Plasma Prolactin (plasma prolactin): 42%

Molecule: CN1CCc2cccc3c2[C@H]1Cc1ccc(O)c(O)c1-3 [Apomorphine, apomorphine]
- ED50 (dopamine neurons [4]; [7]): 0.01 mg/kg
- Emax (dopamine neurons [4]; [8]): 100%
- Catalepsy, active dose (Catalepsy; in vivo): i.a.
- 6-OH DA Turning, rat, dose required to antagonize amphetamine (6-OH DA Turning): i.a.

Molecule: CCCN(CCC)C1(C)Cc2cccc3cc(O)cc(c23)C1 (stereo not drawn) [Example 41, 5-Hydroxy-2-methyl-2,3-dihydro-N,N-di-n-propyl-lH-phenalene-2-amine]
- ED50 [1]: > 50 mg/kg
- Dopamine Binding Assay % Decrease from Control (Dopamine (3H-spiperone)): -55.18%
- ED50 (body temperature [2]): > 50 mg/kg

Molecule: Brc1ccc2c3c(cccc13)CC(N1CCCCC1)C2 (stereo not drawn) [(29), 1-[6-bromo-2,3-dihydro-1H-phenalen-2-yl]piperadine]
- active in either the hypothermic or the apomorphine antogonism test (body temperature [2]): active

Source: EP0234113A1, “2,3-Dihydro-1H-phenalene-2-amino compounds as anti-psychotic drugs” (THE UPJOHN COMPANY, priority 1985, dated 1987)
